# From patent US20210317099A1, “SAFER, POTENT, AND FAST ACTING ANTIMICROBIAL AGENTS” (Purdue Research Foundation, priority 2020, published 2021)
# What was measured:
# Assay in all cases: In vitro cytotoxicity, MTS assay
# Assay type in all cases: cell-based
# [1] = tested on: human keratinocytes cell line (HaCaT cells); settings: 2 h
# Protocol: Compounds 144, 148, 149, 151, 155, and 158 were assayed (at concentrations of 16, 32, and 64 μg/mL) against a human keratinocytes cell line (HaCaT cells) to determine their in vitro potential toxic effect. Briefly, cells were cultured in Dulbecco's Modified Eagle Medium (DMEM) supplemented with 10% fetal bovine serum (FBS) and penicillin-streptomycin at 37° C. in presence of 5% CO2. Compounds were added in the first row of the 96-well plate. Control cells received DMSO alone at a concentration equivalent to that in drug-treated wells. The cells were incubated with the compounds (in triplicate) in a 96-well plate at 37° C. in presence of 5% CO2 for two hours. The assay reagent MTS 3-(4,5-dimethylthiazol-2-yl)-5-(3-carboxymethoxyphenyl)-2-(4-sulfophenyl)-2H-tetrazolium) (Promega, Madison, Wis., USA) was subsequently added and the plate was incubated for three to four hours. Absorbance readings (at OD490) were recorded using a kinetic microplate reader (Molecular Devices, Sunnyvale, Calif., USA). The quantity of viable cells after treatment with each compound was expressed as a percentage of the viability to DMSO-treated control cells (average of triplicate wells±standard deviation).
# FIG. 2. Analyzing the toxicity of compounds 144, 148, 149, 151, 155 and 158 (tested in triplicates at 16, 32 and 64 μg/mL) against human keratinocytes cells (HaCaT) using the MTS 3-(4,5-dimethylthiazol-2-yl)-5-(3-carboxymethoxyphenyl)-2-(4-sulfophenyl)-2H-tetrazolium) assay. Results are presented as percent viable cells relative to DMSO (negative control to determine a baseline measurement for the cytotoxic impact of each compound). The absorbance values represent an average of three samples analyzed for each compound. Error bars represent standard deviation values. The data were analyzed via a two-way ANOVA with post-hoc Dunnett's test for multiple comparisons. An asterisk (*) denotes statistical significance (P<0.05) between results for compounds and DMSO.
# [2] = tested on: murine macrophage (J774) cell line; settings: J774, 24 hours incubation
# Protocol: Compounds were assayed against a murine macrophage (J774) cell line to determine their in vitro potential toxic effect. Cells were cultured in Dulbecco's Modified Eagle Medium (DMEM) supplemented with 10% FBS at 37° C. with 5% CO2. Control cells received DMSO alone at a concentration equal to that in drug-treated cell samples. The cells were incubated with the compounds (in triplicate) in a 96-well plate at 37° C. with 5% CO2 for 24 hours. The assay reagent MTS; 3-(4,5-dimethylthiazol-2-yl)-5-(3-carboxymethoxyphenyl)-2-(4-sulfophenyl)-2H-tetrazolium) (Promega, Madison, Wis., USA) was subsequently added and the plate was incubated for three to four hours. Absorbance readings (at OD490) were recorded using a kinetic microplate reader (Molecular Devices, Sunnyvale, Calif., USA). The quantity of viable cells after treatment with each compound was expressed as a percentage of the viability relative to DMSO-treated control cells (average of triplicate wells±standard deviation). FIG. 5. […] Results are presented as percent viable mammalian cells (measured as average absorbance ratio relative to DMSO). The absorbance values represent an average of a minimum of three samples analyzed for each compound. Error bars represent standard deviation values for the absorbance values.
# [3] = tested on: human colorectal adenocarcinoma (Caco-2) cell
# Protocol: Compounds 144, 148, 151, 155, 158, and 187 were assayed (at concentrations of 16, 32, and 64 μg/mL) against a human colorectal adenocarcinoma (Caco-2) cell to determine the potential toxic effect to mammalian cells in vitro. Briefly, cells were cultured in Dulbecco's Modified Eagle Medium (DMEM) supplemented with 10% fetal bovine serum (FBS), non-essential amino acids (1×), penicillin-streptomycin at 37° C. in presence of 5% CO2. Control cells received DMSO alone at a concentration equal to that in drug-treated wells. The cells were incubated with the compounds (in triplicate) in a 96-well plate at 37° C. with 5% CO2 for two hours. This was followed by the subsequent addition of the assay reagent MTS 3-(4,5-dimethylthiazol-2-yl)-5-(3-carboxymethoxyphenyl)-2-(4-sulfophenyl)-2H-tetrazolium) (Promega, Madison, Wis., USA) and the plate was incubated for three to four hours. Absorbance readings (at OD490) were recorded using a kinetic microplate reader (Molecular Devices, Sunnyvale, Calif., USA). The quantity of viable cells after treatment with each compound was expressed as a percentage of the viability of DMSO-treated control cells (average of triplicate wells±standard deviation).
# FIG. 3. Analyzing the toxicity of 144, 148, 151, 155, 158, and 187 compounds (tested in triplicates at 16, 32 and 64 μg/mL) against human colorectal cells (Caco-2) using the MTS 3-(4,5-dimethylthiazol-2-yl)-5-(3-carboxymethoxyphenyl)-2-(4-sulfophenyl)-2H-tetrazolium) assay. Results are presented as percent viable cells relative to DMSO (negative control) to determine a baseline measurement for the cytotoxic impact of each compound. The absorbance values represent an average of three samples analyzed for each compound. Error bars represent standard deviation values. The data were analyzed via a two-way ANOVA with post-hoc Dunnett's test for multiple comparisons. An asterisk (*) denotes statistical significance (P<0.05) between results for compounds and DMSO.
smiles,measurement,setting,value
C=C1C(=O)O[C@H](c2ccccc2)[C@@H]1c1cccc2ccccc12 [Compound 151],tolerable concentration as multiple of MIC against MRSA,[1],16 to 32 times
C=C(C(=O)OC)C(c1ccc2ccccc2c1)C(O)c1cccc2ccccc12 (stereo not shown) [Compound 148],concentration tolerable to J774 cells,[2],≤ 8000 ng/mL
C=C1C(=O)O[C@H](c2cccc3ccccc23)[C@@H]1c1ccc2ccccc2c1 [Compound 155],viable cells,"[3]; Caco-2, at 32 μg/mL, relative to DMSO",100%
same,non-toxic concentration to Caco-2 cells,"[3]; Caco-2, two hours incubation, MTS",≤ 32 µg/mL
